# Measurements from a melting point compilation (Tetko et al.; mined from patent text by program, amines drawn as free bases though some values may be those of a salt).
row,SMILES,melting point
1,C=COc1ccccc1S(=O)(=O)NC(=O)c1ccc(Cc2cn(C)c3ccc(NC(=O)OC4CCCC4)cc23)c(OC)c1,185 to 188 °C
2,CC1(C#N)CN(C(c2ccccc2)c2ccccc2)C1,78 to 80 °C
3,CN(C)C(=O)c1ccccc1OCC(=O)NC(C)(C)c1ccc(Cl)cc1,127 to 129 °C
4,COc1cc(-c2nc3ccccc3n2Cc2cccc(C)c2)cc(OC)c1OC,78 °C
5,CCC(CC)C(=O)Nc1ccc2ncn3c(=O)c(C(=O)O)cnc3c2c1,295 to 298 °C
6,CCCn1nc(C(F)F)nc1Cc1ccc(-c2ccccc2-c2nnn[nH]2)nc1,176 to 178 °C
7,COC(=O)C1Oc2ccc(Cl)cc2C(c2ccccc2)(C(C)C)O1 (centres undefined),114 to 115 °C
8,O=[N+]([O-])C(CO)(CO)c1ccccc1,96 to 97.5 °C
9,CC(C)(C)C(O)(COc1ccc(F)cc1)C(Cc1ccc(Cl)cc1)n1cncn1 (centres undefined),104 to 105 °C
10,CC(=O)OCC(=O)N(c1c(C)ccc2ccccc12)C1CCOC1=O (centres undefined),50 to 70 °C
11,N=C(N)NC(=O)Cn1c(Cc2ccccc2)ccc1-c1ccccc1,82 to 84 °C
12,Oc1cccc(C2CCCN(CCc3c[nH]c4ccccc34)C2)c1 (centres undefined),130 to 135 °C
13,Cn1c([N+](=O)[O-])cnc1-c1nc2ccccc2c(=O)[nH]1,256 to 260 °C
14,Cc1cn2cccc(N[C@@H]3c4ccccc4C[C@H]3O)c2n1 (relative stereo),188 to 190 °C
15,O=C(NCc1ccccn1)c1nc(-c2ccccc2)c(-c2ccc(=O)[nH]n2)s1,221 to 222 °C
16,CC1(C)CCc2c(Cl)cc(O)cc21,86.5 to 87.5 °C
17,CN(C)c1nc2c(c(N3CCN(Cc4ccccc4)CC3)n1)SCCC2,106 to 108 °C
18,N=C(N)c1ccncc1,136 to 140 °C
19,COC(=O)[C@@H]1CCCN1C(=O)c1ccc(OC)c(O)c1[N+](=O)[O-],108 to 110 °C
20,CCN(CC)C(C#N)c1ccc(OCc2ccccc2)cc1 (centres undefined),75 to 76 °C
21,CCOc1ccc2c(c1)C(C)(c1cc(C(=O)N3CCN(C)CC3)ccc1Cl)C(=O)N2S(=O)(=O)c1ccc(C(=O)NC(C)(C)C)cc1OC (centres undefined),96 °C
22,O=C(c1ccccc1OCCCCl)c1cccc2[nH]ccc12,94 °C
23,Cc1ccc(S(=O)(=O)Oc2ccc(NC(=O)NCCCl)cc2)cc1,149 to 150 °C
24,C1=C(c2ccc(-n3ccnc3)cc2)CCNC1,150 to 153 °C
25,Cc1cc2c(N3CCC(CCO)CC3)ccc(C#N)c2o1,106 to 107 °C

row,SMILES,melting point
1,C=C(C)OC(=O)N1c2nc(C)ccc2NC(=S)C1C (racemic),120 to 121 °C
2,CC1=CC(OC(=O)C=Cc2ccc(N)cc2)C(O)C(C)(C)CC1=O (centres undefined),72 to 74 °C
3,NS(=O)(=O)c1ccc(-c2c(-c3cccc(F)c3)noc2CC(=O)O)cc1,242 to 250 °C
4,CC(C=CC=C(C)C=CC1=C(C)C(=O)CCC1(C)C)=CC=CC=C(C)C=CC=C(C)C=CC1=C(C)C(=O)CCC1(C)C,205 to 207 °C
5,COC1(c2ccccc2)OC=C(c2ccc(C(=O)O)cc2)C1=O (centres undefined),212 to 214 °C
6,C#Cc1cn(-c2c(Cl)cc(C(F)(F)F)cc2Cl)c2ccccc12,120 to 122 °C
7,Cc1cccc(C=Cc2ccccc2C#N)n1,91 to 92 °C
8,COc1ccc(Cc2nc3c(cnn3C(CCCc3ccccc3)C(C)O)c(=O)[nH]2)cc1OC (centres undefined),85 °C
9,Cc1ccc(OCC2CO2)c([N+](=O)[O-])c1[N+](=O)[O-] (centres undefined),121 to 123 °C
10,CCOCC(OC(C)=O)C1CC(=O)C2(C)CCC3C(CCC4=CC(=O)C=C(C)C43C)C12 (centres undefined),155 to 157 °C
11,O=C(NCc1ccc(Cl)cc1)c1cnc2ccc(C#CCO)cn2c1=O,179 to 181 °C
12,COC12CC(C)(c3nc(-c4cncc(Br)c4)no3)CN(C)C1Cc1cn(C)c3cccc2c13 (centres undefined),185 to 189 °C
13,Nc1ccc(N2CCN(CCCC3CCCC3)C2=O)cc1,97 to 99 °C
14,CCCNC(=O)Nc1ccc(N(C)C)cc1C(=O)NCC1CCN(C(c2ccccc2)c2ccccc2)CC1,199 to 201 °C
15,CON(C(=O)c1cn(C)nc1C(F)F)C(C)c1ccc(I)cc1 (centres undefined),72 to 74 °C
16,CNC(=O)n1ncc2ccc(NC(=O)/C=C/c3ccc(C(C)(C)C)cc3)cc21,208 to 209 °C
17,NNc1ncccc1Br,146 to 148 °C
18,O=C(O)CNC(=O)c1nc(Cl)c2cc(OCc3ccccc3)ccc2c1O,194 to 196 °C
19,Cc1nnc2n1-c1ccc(Cl)cc1C(N1CCOCC1)=NC2,243 to 253 °C
20,CCOC=Nc1c(SC(F)(F)F)c(C#N)nn1-c1c(Cl)cc(C(F)(F)F)cc1Cl,68 °C
21,Nc1cc(-c2ccco2)ccc1Nc1cccc(-n2cccc2)c1,163 to 164 °C
22,NC(=O)N1C(=O)C(=C(OC(=O)C=CC(=O)O)c2cccs2)c2cc(F)c(Cl)cc21,229 to 232 °C
23,C#CCNC(NCCSCc1[nH]cnc1C)=C(C#N)C#N,112 to 115 °C
24,O=c1[nH]c2ccc(O)cc2[nH]1,186 to 187 °C
25,O=C1OC[C@@H](CO)N1c1nc(-c2ccc(Br)cc2)cs1,189 to 192 °C

row,SMILES,melting point
1,COc1cc2c(cc1OC)C1Cc3cc(OC)c(OC(C)=O)cc3CN1CC2 (centres undefined),162 to 164 °C
2,COCCCc1nc(C(F)F)ccc1C(=O)C1C(=O)C2CCC(C2)C1=O (centres undefined),45 to 46 °C
3,CN1CCN(CCCNc2ncc3cc(-c4c(Cl)cccc4Cl)c(NC(=O)NCc4ccccc4)nc3n2)CC1,144 to 148 °C
4,NS(=O)(=O)c1cc2c(s1)S(=O)(=O)C(CCO)CN2 (centres undefined),158 to 160 °C
5,Cc1c(NC(=O)c2ccc(-c3ccc(F)cc3)cc2F)ccc2cc(CN3CCCCCC3)cnc12,159 to 160 °C
6,COc1cc(-c2nc(N)sc2SCC2CCCC2)c(OC)cc1C,88 to 89 °C
7,COCCOC(=O)c1cc(C(=O)NOC)c(O)c2ncc(Cc3ccc(F)cc3)cc12,166 to 168 °C
8,CCOC(=O)c1nnc(-c2cc3cccc(N(C)S(=O)(=O)c4cccs4)c3[nH]2)s1,176 to 177 °C
9,CNC(=O)NCCCn1cc(Cn2ccnc2)c2ccccc21,123 to 124 °C
10,Fc1ccc(C(c2ccc(F)cc2)N2CCN(CCCSc3ncnc4nc[nH]c34)CC2)cc1,90 to 93 °C
11,O=C(c1ccc2n1Cc1ccccc1N(S(=O)(=O)c1ccc(Br)cc1)C2)C(Cl)(Cl)Cl,182 to 183 °C
12,CCOC(=O)c1cnc2c(N=C3C(=O)OC(C)(C)OC3=O)cccc2c1,228 to 231 °C
13,Cc1cc(S(=O)(=O)O)c(NC(=O)Nc2cccc(Br)c2)cc1Cl,275 °C
14,Cc1cc(C)nc(NCCN(C(C)C)C(C)C)n1,79.5 to 82 °C
15,OC1CCN(c2ccc(Br)cn2)CC1,91 to 93 °C
16,COc1cc(Cc2cnc(N)nc2N)c2cc(C)oc2c1OC,209 to 212 °C
17,CCC(C)(CC)NC(=O)C1(O)CC(C)(C)NC(C)(C)C1,127 to 129 °C
18,Cc1cc(-c2c(-c3ccc(S(N)(=O)=O)cc3)cnn(-c3ccc(F)c(Cl)c3)c2=O)ccc1F,243 to 245 °C
19,Cc1ccc(C=Nc2cc(F)ccc2C(=O)O)cc1,144 to 145 °C
20,O=C(O)c1cccc(CNc2n[nH]c3ncnc(Nc4cccc(Cl)c4)c23)c1,294 to 296 °C
21,Nc1ccccc1C(=O)Nc1cccc2cc(Br)cnc12,147 to 150 °C
22,Cc1cc(C)c2c3ccccc3c(=O)n(CCN(C)C)c2n1,128 to 130 °C
23,O=C(Nc1cccc2c1C(=O)c1c-2n[nH]c1-c1ccc(N2CCNCC2)cc1)NN1CCC[C@@H]1CO,190 °C
24,O=C(O)c1ccc(C(=O)N[C@@H](Cc2c[nH]c3ccccc23)C(=O)O)cc1,187 to 189 °C
25,COc1ccc(NC(=O)C(=O)c2c3n(c4ccccc24)CCNCC3)cc1,177 to 180 °C

row,SMILES,melting point
1,COc1cccc(COc2ccc(N)nn2)c1OC,103 to 106 °C
2,CCc1cc(Cl)c(NN)c(Cl)c1,48 to 50 °C
3,O=C(c1ccccc1)N1CC(OCc2ccccc2)C(OCc2ccccc2)C(OCc2ccccc2)C1CO (centres undefined),104 to 106 °C
4,Cc1ccc(C(NC(N)=S)c2ccccc2)cc1 (centres undefined),167 to 168 °C
5,Nc1cc(-c2nnc(SCc3ccc(Cl)cc3)o2)ccn1,200 to 201 °C
6,CN(C)/C=C/C(=O)c1ccc(C(F)(F)F)cc1,96.5 to 98 °C
7,CCOC(=O)C(NC(=O)CCNC(=O)CO)C(=O)OCC,94.5 to 96 °C
8,O=Cc1ccc2c(c1)CC(Cc1ccccc1)O2 (centres undefined),77 to 80 °C
9,CCNC(=O)n1nc(Oc2c(Cl)cc(C(F)(F)F)cc2Cl)cc1C(=O)OC,88 to 90 °C
10,CCN1CCCC1CNC(=O)c1cc(NS(N)(=O)=O)c(C)cc1OC (centres undefined),140 to 141 °C
11,COc1cc(C(N)=S)c2c(c1OC)C(=O)CC2,196 to 199 °C
12,CCCn1cc(Cc2ccc(C(=O)O)cc2OC)c2cc(C=CCC(=O)N(C)C)ccc21,124 to 126 °C
13,O=C1C2=C(CCCC2)C(=O)N1c1cc(OC2CCCCC2)c(Cl)cc1F,102 to 103 °C
14,COC(=O)C(CNC(C)=O)C1CCC(C(C)(C)C)CC1 (centres undefined),73 to 75 °C
15,NC(=O)C(c1ccccc1)c1ccccn1 (racemic),134 °C
16,Cc1cc(C#N)c(O)c(C(=O)O)c1,213 to 214 °C
17,CC(=O)Nc1cc(/C=C/C(=O)NCC(=O)N(C)c2ccc(Cl)c(COc3cccc4ccc(C)nc34)c2Cl)ccn1,115 to 131 °C
18,O=C1Cc2cc(O)ccc2N1c1c(Cl)cccc1Cl,204 to 205 °C
19,O=C(O)[C@H]1C[C@H](NC(=O)N2CCc3ccccc32)c2c(Cl)cc(Cl)cc2N1 (relative stereo),251 to 252 °C
20,COC(=O)[C@H](CCCCNC(=O)c1ccc(C(=O)c2ccccc2)cc1)n1c2ccccc2c2ccccc21,65 °C
21,BrCc1ccc(-c2nnn(C(c3ccccc3)(c3ccccc3)c3ccccc3)n2)cc1,165 to 172 °C
22,Nc1nc(Cl)cc(Oc2ccc3c(c2)OCCN3C(=O)OCc2ccccc2)n1,161 to 163 °C
23,O=[N+]([O-])c1ccc(OCCCO)cc1CS(=O)(=O)c1cccc2ccccc12,134 to 135 °C
24,CN(C)C1CN(c2c(F)cc3c(=O)c(C(=O)O)cn(C4CC4)c3c2F)C1,256 to 260 °C
